Assay: Clinical trial adverse event reporting
Conditions: Group A n = 25; 1000 mg/day oral, 28 days

## O=c1oc2cc(O)ccc2c2ccc(O)cc12 [Urolithin A]
  Post-emergent AEs: Infections and Infestations, Covid-19: 1 (4%) n (%)

Source: patent US20250345309A1, “IMMUNE HEALTH IMPROVERS” (Amazentis SA, priority 2024, published 2025)
